According to US20240246908A1 (ORION CORPORATION, priority 2021, published 2024):

Test system: YAP-TEAD
Assay: TEAD inhibition, Hippo Pathway TEAD Reporter MCF-7 luciferase assay
Assay type: cell-based
Settings: Homo sapiens, MCF7, 24 h, Hippo Pathway TEAD Reporter MCF-7 cells, luciferase activity after 24 h; read-out: IC50 of the test compounds on YAP-TEAD inhibition (Group)
Outline: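 MCF-7 cells carrying a TEAD-responsive firefly luciferase reporter, with nuclear YAP1 driving constitutive expression, were treated the day after plating with compounds (11 concentrations, 4 replicates; 0.1% DMSO control). After 24 h, luciferase was read by ONE-Glo luminescence and IC50 determined.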

Compound	IC50 [nM]
COc1ccc(Oc2ccc(Cl)c(F)c2)cc1NC(=O)C1CCC(=O)N1C (stereo not drawn) [Compound 305, N-(5-(4-Chloro-3-fluorophenoxy)-2-methoxyphenyl)-1-methyl-5-oxopyrrolidine-2-carboxamide]	< 50
CN1C(=O)CCC1C(=O)Nc1cc(C#N)cc(Oc2ccc(C(F)(F)F)cc2)c1 (stereo not drawn) [Compound 306, N-(3-Cyano-5-(4-(trifluoromethyl)phenoxy)phenyl)-1-methyl-5-oxopyrrolidine-2-carboxamide]	301 to 2000
COc1ccc(Oc2ccc(Cl)cc2)cc1NC(=O)[C@@H]1CCC(=O)N1C [Compound 307, (S)—N-(5-(4-Chlorophenoxy)-2-methoxyphenyl)-1-methyl-5-oxopyrrolidine-2-carboxamide]	< 50
COc1ccc(Oc2ccc(Cl)cc2)cc1NC(=O)[C@H]1CCC(=O)N1C [Compound 308, (R)—N-(5-(4-Chlorophenoxy)-2-methoxyphenyl)-1-methyl-5-oxopyrrolidine-2-carboxamide]	< 50
COc1ccc(Oc2ccc(C#N)c(Cl)c2)cc1NC(=O)C1CCC(=O)N1C (stereo not drawn) [Compound 309, N-(5-(3-Chloro-4-cyanophenoxy)-2-methoxyphenyl)-1-methyl-5-oxopyrrolidine-2-carboxamide]	50 to 300
COc1ccc(Oc2ccc(C#N)c(Cl)c2)cc1NC(=O)[C@@H]1CCC(=O)N1C [Compound 310, (S)—N-(5-(3-Chloro-4-cyanophenoxy)-2-methoxyphenyl)-1-methyl-5-oxo-pyrrolidine-2-carboxamide]	50 to 300
COc1ccc(Oc2ccc(C(F)(F)F)cc2)cc1NC(=O)[C@@H]1CCCN1S(C)(=O)=O [Compound 311, (S)—N-(2-Methoxy-5-(4-(trifluoromethyl)phenoxy)phenyl)-1-(methylsulfonyl)-pyrrolidine-2-carboxamide]	301 to 2000
COc1ccc(Oc2ccc(Cl)c(F)c2)cc1NC(=O)[C@@H]1CCC(=O)N1C [Compound 312, (S)—N-(5-(4-Chloro-3-fluorophenoxy)-2-methoxyphenyl)-1-methyl-5-oxo-pyrrolidine-2-carboxamide]	< 50
COc1ccc(Oc2ccc3c(c2)CCO3)cc1NC(=O)C1CCC(=O)N1C (stereo not drawn) [Compound 315, N-(5-((2,3-Dihydrobenzofuran-5-yl)oxy)-2-methoxyphenyl)-1-methyl-5-oxopyrrolidine-2-carboxamide]	50 to 300
COCCN1C(=O)CCC1C(=O)Nc1cc(Oc2ccc(C(F)(F)F)cc2)ccc1OC (stereo not drawn) [Compound 318, N-(2-Methoxy-5-(4-(trifluoromethyl)phenoxy)phenyl)-1-(2-methoxyethyl)-5-oxopyrrolidine-2-carboxamide]	< 50
COc1ccc(Oc2ccc(C(F)F)cc2)cc1NC(=O)[C@H]1CCC(=O)N1C [Compound 319, (R)—N-(5-(4-(Difluoromethyl)phenoxy)-2-methoxyphenyl)-1-methyl-5-oxo-pyrrolidine-2-carboxamide]	< 50
COc1ccc(Oc2ccc(C(F)(F)F)cc2)cc1NC(=O)C1CCN(S(C)(=O)=O)C1 (stereo not drawn) [Compound 326, N-(2-Methoxy-5-(4-(trifluoromethyl)phenoxy)phenyl)-1-(methylsulfonyl)-pyrrolidine-3-carboxamide]	301 to 2000
COc1ccc(Oc2cc(C(F)(F)F)ccn2)cc1NC(=O)C1CCNC(=O)C1 (stereo not drawn) [Compound 327, N-(2-methoxy-5-((4-(trifluoromethyl)pyridin-2-yl)oxy)phenyl)-2-oxopiperidine-4-carboxamide]	301 to 2000
CN1C(=O)CCC1C(=O)Nc1cc(Oc2ccc(OC(F)(F)F)cc2)ccc1F (stereo not drawn) [Compound 328, N-(2-Fluoro-5-(4-(trifluoromethoxy)phenoxy)phenyl)-1-methyl-S-oxopyrrolidine-2-carboxamide]	50 to 300
CN1C(=O)CCC1C(=O)Nc1cc(Oc2ccc(OC(F)(F)F)cc2)ccc1Cl (stereo not drawn) [Compound 329, N-(2-Chloro-5-(4-(trifluoromethoxy)phenoxy)phenyl)-1-methyl-5-oxo-pyrrolidine-2-carboxamide]	301 to 2000
COCC(=O)N1C(=O)CCC1C(=O)Nc1cc(Oc2cc(C(F)(F)F)ccn2)ccc1OC (stereo not drawn) [Compound 331, N-(2-Methoxy-5-((4-(trifluoromethyl)-pyridin-2-yl)oxy)phenyl)-1-(2-methoxyacetyl)-5-oxopyrrolidine-2-carboxamide]	50 to 300
COc1ccc(Oc2ccc(C(F)(F)F)cc2)cc1NC(=O)[C@@H]1CN(C)C(=O)N1 [Compound 332, (S)—N-(2-Methoxy-5-(4-(trifluoromethyl)phenoxy)phenyl)-1-methyl-2-oxo-imidazolidine-4-carboxamide]	301 to 2000
COCC(=O)N1C(=O)CC[C@H]1C(=O)Nc1cc(Oc2ccc(C(F)(F)F)cc2)ccc1OC [Compound 333, (S)—N-(2-Methoxy-5-(4-(trifluoromethyl)phenoxy)phenyl)-1-(2-methoxyacetyl)-5-oxopyrrolidine-2-carboxamide]	301 to 2000
COc1ccc(Oc2ccc(C(F)(F)F)cc2)cc1NC(=O)C1CNC(=O)C1 (stereo not drawn) [Compound 335, N-(2-Methoxy-5-(4-(trifluoromethyl)phenoxy)phenyl)-5-oxopyrrolidine-3-carboxamide]	< 50
COc1ccc(Oc2ccc(C(F)(F)F)cc2)cc1NC(=O)[C@@H]1CCCN1CC(N)=O [Compound 337, (S)-1-(2-Amino-2-oxoethyl)-N-(2-methoxy-5-(4-(trifluoromethyl)phenoxy)-phenyl)pyrrolidine-2-carboxamide]	50 to 300
COc1ccc(Oc2ccc(Cl)c(F)c2)cc1NC(=O)[C@@H]1CNC(=O)N1C [Compound 338, (S)—N-(5-(4-Chloro-3-fluorophenoxy)-2-methoxyphenyl)-3-methyl-2-oxo-imidazolidine-4-carboxamide]	< 50
COc1ccc(Oc2ncc(C(F)(F)F)cc2F)cc1NC(=O)[C@@H]1CNC(=O)N1C [Compound 339, (S)—N-(5-((3-Fluoro-5-(trifluoromethyl)pyridin-2-yl)oxy)-2-methoxyphenyl)-3-methyl-2-oxoimidazolidine-4-carboxamide]	< 50
COc1ccc(Oc2ccc(C(F)(F)F)cc2)cc1NC(=O)CC1C(=O)N(C)C(=O)N1C (stereo not drawn) [Compound 341, 2-(1,3-Dimethyl-2,5-dioxoimidazolidin-4-yl)-N-(2-methoxy-5-(4-(trifluoro-methyl)phenoxy)phenyl)acetamide]	301 to 2000
COc1ccc(Oc2ccc(C(F)(F)F)cc2)cc1NC(=O)[C@@H]1CN(C)C(=O)N1C(C)=O [Compound 342, (S)-3-Acetyl-N-(2-methoxy-5-(4-(trifluoromethyl)phenoxy)phenyl)-1-methyl-2-oxoimidazolidine-4-carboxamide]	50 to 300
COc1ccc(Oc2ncc(C(F)(F)F)cc2F)cc1NC(=O)[C@@H]1CN(C)C(=O)N1C(C)=O [Compound 343, (S)-3-Acetyl-N-(5-((3-fluoro-5-(trifluoromethyl)pyridin-2-yl)oxy)-2-methoxy-phenyl)-1-methyl-2-oxoimidazolidine-4-carboxamide]	301 to 2000

More lines, now with the values ahead:

IC50 [nM]	Compound
< 50	COc1ccc(Oc2ccc(Cl)cc2)cc1NC(=O)C1CCC(=O)N1C (stereo not drawn) [Compound 304, N-(5-(4-Chlorophenoxy)-2-methoxyphenyl)-1-methyl-5-oxopyrrolidine-2-carboxamide]
< 50	COc1ccc(Oc2ccc(C(F)F)cc2)cc1NC(=O)[C@@H]1CCC(=O)N1C [Compound 313, (S)—N-(5-(4-(Difluoromethyl)phenoxy)-2-methoxyphenyl)-1-methyl-5-oxo-pyrrolidine-2-carboxamide]
< 50	COc1ccc(Oc2cccc(Cl)c2)cc1NC(=O)C1CCC(=O)N1C (stereo not drawn) [Compound 316, N-(5-(3-Chlorophenoxy)-2-methoxyphenyl)-1-methyl-5-oxopyrrolidine-2-carboxamide]
< 50	COc1ccc(Oc2ccc(C(F)(F)F)cc2)cc1NC(=O)C1CCCC(=O)N1C (stereo not drawn) [Compound 320, N-(2-Methoxy-5-(4-(trifluoromethyl)phenoxy)phenyl)-1-methyl-6-oxo-piperidine-2-carboxamide]
50 to 300	COc1ccc(Oc2ccc(F)c(F)c2)cc1NC(=O)C1CCCC(=O)N1C (stereo not drawn) [Compound 321, N-(5-(3,4-Difluorophenoxy)-2-methoxyphenyl)-1-methyl-6-oxopiperidine-2-carboxamide]
< 50	COc1ccc(Oc2ccc(C(F)(F)F)cc2)cc1NC(=O)C1CCNC(=O)C1 (stereo not drawn) [Compound 322, N-(2-Methoxy-5-(4-(trifluoromethyl)phenoxy)phenyl)-2-oxopiperidine-4-carboxamide]
301 to 2000	COc1ccc(Oc2ccc(C(F)(F)F)cc2)cc1NC(=O)C1CCN(C)C(=O)C1 (stereo not drawn) [Compound 323, N-(2-Methoxy-5-(4-(trifluoromethyl)phenoxy)phenyl)-1-methyl-2-oxo-piperidine-4-carboxamide]
301 to 2000	CN1C(=O)CCC1C(=O)Nc1cc(Oc2ccc(C(F)(F)F)cc2)ccc1C(N)=O (stereo not drawn) [Compound 330, N-(2-Carbamoyl-5-(4-(trifluoromethyl)phenoxy)phenyl)-1-methyl-5-oxopyrrolidine-2-carboxamide]
50 to 300	COCC(=O)N1C(=O)CCC1C(=O)Nc1cc(Oc2ncc(C(F)(F)F)cc2F)ccc1OC (stereo not drawn) [Compound 334, N-(5-((3-Fluoro-5-(trifluoromethyl)pyridin-2-yl)oxy)-2-methoxyphenyl)-1-(2-methoxyacetyl)-5-oxopyrrolidine-2-carboxamide]
50 to 300	COCC(=O)N1CCC[C@H]1C(=O)Nc1cc(Oc2ccc(C(F)(F)F)cc2)ccc1OC [Compound 336, (S)—N-(2-Methoxy-5-(4-(trifluoromethyl)phenoxy)phenyl)-1-(2-methoxyacetyl)-pyrrolidine-2-carboxamide]
< 50	COc1ccc(Oc2ccc(C(F)F)cc2)cc1NC(=O)[C@@H]1CNC(=O)N1C [Compound 340, (S)—N-(5-(4-(Difluoromethyl)phenoxy)-2-methoxyphenyl)-3-methyl-2-oxo-imidazolidine-4-carboxamide]
